pEC50, pIC50: −log10 of the molar value. Some results are limits rather than exact numbers.

In test [1] the target is T1, DDB1DB/DCAF15 and RBM39 R1R2 complex (Homo sapiens, UniProt Q14498+Q66K64).
T1 construct: Amino acids 150 to 331 of RBM39 were cloned into pGEX4T3; GST (from vector pGEX4T3); TEV cleavage site (N); made in house; host or cells: DDB1DB/His-DCAF15: baculovirus/Sf9 co-expression; RBM39 R1R2: E. coli (pGEX4T3)
Nature of the test: DCAF15 RBM39 Complex Formation Assay (FRET). It counts as binding. The note with it: FRET ratio Em 665/Em 615, incubated overnight at 4° C. In short, it runs like this:
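Ternary complex formation read by TR-FRET (Em 665/615, excitation 340 nm) after overnight incubation at 4° C of 20 nM baculovirus DDB1DB/His-DCAF15 and 50 nM E. coli RBM39 RRM1-RRM2 FLAG fragment with 14-point, 3-fold compound dilutions from 1 μM; EC50 from 4-parameter fit.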

In test [2] the test system is HCT116 human colorectal carcinoma cells. Briefly: CellTiter-Glo Luminescent Cell Viability Assay. In kind it is cell-based. The note with it: HCT-116, 72 h, 3 days. Summed up:
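HCT116 cells were exposed for 3 days to compound in triplicate at final concentrations of 5 to 0.0002 […] (1:3 dilutions). Viability was read by CellTiter-Glo luminescence, and IC50 values were calculated.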
A general note: Cellular ATP, detected with luciferase, serves as a proxy for viable cell number.

T1 sequence (Q66K64 whole entry, the tested form may be a part): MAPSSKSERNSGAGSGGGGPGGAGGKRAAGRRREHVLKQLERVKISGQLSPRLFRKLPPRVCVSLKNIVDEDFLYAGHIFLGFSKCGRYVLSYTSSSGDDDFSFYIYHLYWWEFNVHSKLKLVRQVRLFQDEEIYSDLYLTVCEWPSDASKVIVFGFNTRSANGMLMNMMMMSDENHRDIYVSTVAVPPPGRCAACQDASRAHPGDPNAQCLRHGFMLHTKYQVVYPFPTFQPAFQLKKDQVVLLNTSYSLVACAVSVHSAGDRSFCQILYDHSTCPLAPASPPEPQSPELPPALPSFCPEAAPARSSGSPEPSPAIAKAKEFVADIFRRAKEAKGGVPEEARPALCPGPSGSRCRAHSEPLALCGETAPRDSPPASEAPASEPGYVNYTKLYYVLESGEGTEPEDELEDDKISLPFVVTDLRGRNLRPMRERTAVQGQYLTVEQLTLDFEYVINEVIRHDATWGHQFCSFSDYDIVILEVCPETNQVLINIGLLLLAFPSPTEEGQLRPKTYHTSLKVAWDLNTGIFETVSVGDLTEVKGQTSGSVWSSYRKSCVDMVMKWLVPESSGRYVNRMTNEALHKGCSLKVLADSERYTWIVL
T1 sequence (Q14498 150-331): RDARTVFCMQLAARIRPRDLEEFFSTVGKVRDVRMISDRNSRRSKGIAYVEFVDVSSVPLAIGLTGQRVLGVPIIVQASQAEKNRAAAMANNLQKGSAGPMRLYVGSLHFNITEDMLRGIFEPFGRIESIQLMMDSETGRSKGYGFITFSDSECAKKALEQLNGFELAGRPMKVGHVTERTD
T1 sequence (Q16531 with tags, fused parts or gaps DEL396-708 partner): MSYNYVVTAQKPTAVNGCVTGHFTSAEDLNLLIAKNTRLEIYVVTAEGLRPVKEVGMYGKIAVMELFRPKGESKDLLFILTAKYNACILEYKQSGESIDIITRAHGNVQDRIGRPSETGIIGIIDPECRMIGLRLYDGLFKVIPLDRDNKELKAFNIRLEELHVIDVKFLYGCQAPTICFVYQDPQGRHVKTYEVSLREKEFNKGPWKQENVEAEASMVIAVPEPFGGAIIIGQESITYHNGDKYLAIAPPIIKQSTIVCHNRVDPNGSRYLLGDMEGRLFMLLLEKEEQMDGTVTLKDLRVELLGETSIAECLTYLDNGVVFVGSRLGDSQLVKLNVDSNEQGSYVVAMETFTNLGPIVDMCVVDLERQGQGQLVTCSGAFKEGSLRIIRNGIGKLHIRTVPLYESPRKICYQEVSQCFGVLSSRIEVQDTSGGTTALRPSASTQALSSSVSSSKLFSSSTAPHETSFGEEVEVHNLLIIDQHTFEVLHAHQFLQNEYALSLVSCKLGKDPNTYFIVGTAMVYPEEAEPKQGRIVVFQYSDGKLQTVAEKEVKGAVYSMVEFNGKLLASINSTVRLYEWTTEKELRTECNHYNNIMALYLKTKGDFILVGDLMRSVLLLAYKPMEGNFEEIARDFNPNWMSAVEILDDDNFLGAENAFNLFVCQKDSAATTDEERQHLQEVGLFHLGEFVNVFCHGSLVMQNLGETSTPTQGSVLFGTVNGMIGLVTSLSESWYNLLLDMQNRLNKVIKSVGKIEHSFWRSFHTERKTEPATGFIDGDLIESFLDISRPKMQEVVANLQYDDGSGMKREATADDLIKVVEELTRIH

`Cc1ccc(NS(=O)(=O)c2cnn(C(C)(C)CO)c2)c2[nH]cc(C#N)c12` [Compound 198, N-(3-cyano-4-methyl-1H-indol-7-yl)-1-(2-hydroxy-1,1-dimethyl-ethyl)pyrazole-4-sulfonamide]: in test [1], the pIC50 is greater than 6.60. For the same molecule, the pEC50 in test [2] was greater than 6.60.

Turning to `CC(C)(O)Cn1cc(S(=O)(=O)Nc2ccc(Cl)c3c(C#N)c[nH]c23)c(F)n1` [Compound 204, N-(4-chloro-3-cyano-1H-indol-7-yl)-3-fluoro-1-(2-hydroxy-2-methyl-propyl)pyrazole-4-sulfonamide], the pIC50 in test [1] was greater than 6.60. Further, in test [2], the pEC50 was less than 6.00.

On to `Cc1ccc(NS(=O)(=O)c2cn(CC(C)(C)O)nc2F)c2[nH]cc(C#N)c12` [Compound 205, N-(3-cyano-4-methyl-1H-indol-7-yl)-3-fluoro-1-(2-hydroxy-2-methyl-propyl)pyrazole-4-sulfonamide], for which the pIC50 in test [1] is greater than 6.60. The pEC50 in test [2] was 6.00 to 6.60.

Consider `CC(C)(O)Cn1cc(S(=O)(=O)Nc2ccc(F)c3c(C#N)c[nH]c23)c(F)n1` [Compound 206, N-(3-cyano-4-fluoro-1H-indol-7-yl)-3-fluoro-1-(2-hydroxy-2-methyl-propyl)pyrazole-4-sulfonamide], for which the pIC50 in test [1] was greater than 6.60. The pEC50 in test [2] is less than 6.00.

For `Cc1ccc(NS(=O)(=O)c2cnn([C@H](C)CO)c2)c2[nH]cc(C#N)c12` [Compound 207, (R)—N-(3-cyano-4-methyl-1H-indol-7-yl)-1-(1-hydroxypropan-2-yl)-1H-pyrazole-4-sulfonamide], the pIC50 in test [1] is greater than 6.60. Moreover, in test [2], the pEC50 was greater than 6.60.

Take `C[C@H](CO)n1cc(S(=O)(=O)Nc2ccc(Cl)c3c(C#N)c[nH]c23)cn1` [Compound 208, (R)—N-(4-chloro-3-cyano-1H-indol-7-yl)-1-(1-hydroxypropan-2-yl)-1H-pyrazole-4-sulfonamide]: the pIC50 in test [1] is greater than 6.60. In test [2], the pEC50 is 6.00 to 6.60.

`N#Cc1c[nH]c2c(NS(=O)(=O)c3cnn(CCCO)c3)ccc(Cl)c12` [Compound 209, N-(4-chloro-3-cyano-1H-indol-7-yl)-1-(3-hydroxypropyl)-1H-pyrazole-4-sulfonamide]: the pIC50 in test [1] is greater than 6.60. Further, the pEC50 in test [2] was 6.00 to 6.60.

For the molecule `Cc1ccc(NS(=O)(=O)c2cnn(CCCO)c2)c2[nH]cc(C#N)c12` [Compound 210, N-(3-cyano-4-methyl-1H-indol-7-yl)-1-(3-hydroxypropyl)pyrazole-4-sulfonamide], the pIC50 in test [1] is greater than 6.60. Besides, the pEC50 in test [2] was 6.00 to 6.60.

As for `N#Cc1c[nH]c2c(NS(=O)(=O)c3cnn(CCCO)c3)ccc(F)c12` [Compound 211, N-(3-cyano-4-fluoro-1H-indol-7-yl)-1-(3-hydroxypropyl)pyrazole-4-sulfonamide], in test [1], the negative-log IC50 (pIC50) is greater than 6.60. Also, the pEC50 in test [2] is 6.00 to 6.60.

With `C[C@H](CO)n1cc(S(=O)(=O)Nc2ccc(F)c3c(C#N)c[nH]c23)cn1` [Compound 212, (R)—N-(3-cyano-4-fluoro-1H-indol-7-yl)-1-(1-hydroxypropan-2-yl)-1H-pyrazole-4-sulfonamide], the pIC50 in test [1] was greater than 6.60. Moreover, the pEC50 in test [2] is 6.00 to 6.60.

Consider `C[C@H](C(N)=O)n1cc(S(=O)(=O)Nc2ccc(Cl)c3c(C#N)c[nH]c23)cn1` [Compound 213, (2R)-2-[4-[(4-chloro-3-cyano-1H-indol-7-yl)sulfamoyl]pyrazol-1-yl]propanamide], for which the negative-log IC50 (pIC50) in test [1] was greater than 6.60. Besides, in test [2], the pEC50 was 6.00 to 6.60.

For `N#Cc1c[nH]c2c(NS(=O)(=O)c3cn[nH]c3)ccc(F)c12` [Compound 214, N-(3-cyano-4-fluoro-1H-indol-7-yl)-1H-pyrazole-4-sulfonamide], in test [1], the pIC50 was greater than 6.60. Also, the pEC50 in test [2] is less than 6.00.

As for `N#Cc1c[nH]c2c(NS(=O)(=O)c3cnn(C(F)F)c3)ccc(F)c12` [Compound 215, N-(3-cyano-4-fluoro-1H-indol-7-yl)-1-(difluoromethyl)pyrazole-4-sulfonamide], the pIC50 in test [1] is greater than 6.60. Further, the pEC50 in test [2] is 6.00 to 6.60.

For `N#Cc1c[nH]c2c(NS(=O)(=O)c3cnn(CC(F)(F)F)c3)ccc(F)c12` [Compound 216, N-(3-cyano-4-fluoro-1H-indol-7-yl)-1-(2,2,2-trifluoroethyl)pyrazole-4-sulfonamide], in test [1], the pIC50 was greater than 6.60. Also, the pEC50 in test [2] is 6.00 to 6.60.

For the molecule `CCn1cc(S(=O)(=O)Nc2ccc(F)c3c(C#N)c[nH]c23)cn1` [Compound 217, N-(3-cyano-4-fluoro-1H-indol-7-yl)-1-ethyl-pyrazole-4-sulfonamide], the pIC50 in test [1] was greater than 6.60. The negative-log EC50 (pEC50) in test [2] was 6.00 to 6.60.

Turning to `Cc1ccc(NS(=O)(=O)c2cnn(C34CC(C3)C4)c2)c2[nH]cc(C#N)c12` [Compound 218, 1-(3-bicyclo[1.1.1]pentanyl)-N-(3-cyano-4-methyl-1H-indol-7-yl)pyrazole-4-sulfonamide], the pIC50 in test [1] was greater than 6.60. Moreover, the pEC50 in test [2] was 6.00 to 6.60.

`N#Cc1c[nH]c2c(NS(=O)(=O)c3cnn(C45CC(C4)C5)c3)ccc(F)c12` [Compound 219, 1-(3-bicyclo[1.1.1]pentanyl)-N-(3-cyano-4-fluoro-1H-indol-7-yl)pyrazole-4-sulfonamide]: the pIC50 in test [1] is greater than 6.60. Further, the pEC50 in test [2] was 6.00 to 6.60.

For `CC(C)(O)CCn1cc(S(=O)(=O)Nc2ccc(Cl)c3c(C#N)c[nH]c23)cn1` [Compound 220, N-(4-chloro-3-cyano-1H-indol-7-yl)-1-(3-hydroxy-3-methyl-butyl)pyrazole-4-sulfonamide], in test [1], the pIC50 was greater than 6.60. Also, the pEC50 in test [2] was 6.00 to 6.60.

As to `Cc1ccc(NS(=O)(=O)c2cnn(CCC(C)(C)O)c2)c2[nH]cc(C#N)c12` [Compound 221, N-(3-cyano-4-methyl-1H-indol-7-yl)-1-(3-hydroxy-3-methyl-butyl)pyrazole-4-sulfonamide], the pIC50 in test [1] is greater than 6.60. For the same molecule, in test [2], the pEC50 was greater than 6.60.

As to `CC(C)(O)CCn1cc(S(=O)(=O)Nc2ccc(F)c3c(C#N)c[nH]c23)cn1` [Compound 222, N-(3-cyano-4-fluoro-1H-indol-7-yl)-1-(3-hydroxy-3-methyl-butyl)pyrazole-4-sulfonamide], in test [1], the pIC50 was greater than 6.60. In test [2], the pEC50 is 6.00 to 6.60.

On to `N#Cc1c[nH]c2c(NS(=O)(=O)c3cnn(C45CC(C4)C5)c3)ccc(Cl)c12` [Compound 223, 1-(3-bicyclo[1.1.1]pentanyl)-N-(4-chloro-3-cyano-1H-indol-7-yl)pyrazole-4-sulfonamide], for which the pIC50 in test [1] was greater than 6.60. In addition, the pEC50 in test [2] was 6.00 to 6.60.

Regarding `CC(C)(CO)n1cc(S(=O)(=O)Nc2ccc(F)c3c(C#N)c[nH]c23)cn1` [Compound 224, N-(3-cyano-4-fluoro-1H-indol-7-yl)-1-(2-hydroxy-1,1-dimethyl-ethyl)pyrazole-4-sulfonamide], the pIC50 in test [1] was greater than 6.60. Besides, the pEC50 in test [2] was 6.00 to 6.60.

Turning to `C[C@H](CF)n1cc(S(=O)(=O)Nc2ccc(F)c3c(C#N)c[nH]c23)cn1` [Compound 225, N-(3-cyano-4-fluoro-1H-indol-7-yl)-1-[(1R)-2-fluoro-1-methyl-ethyl]pyrazole-4-sulfonamide], the pIC50 in test [1] was greater than 6.60. Besides, in test [2], the pEC50 is 6.00 to 6.60.

As to `N#Cc1c[nH]c2c(NS(=O)(=O)c3cnn([C@@H](CO)C(F)F)c3)ccc(Cl)c12` [Compound 226, N-(4-chloro-3-cyano-1H-indol-7-yl)-1-[(1S)-2,2-difluoro-1-(hydroxymethyl)ethyl]pyrazole-4-sulfonamide], the negative-log IC50 (pIC50) in test [1] was greater than 6.60. In addition, the pEC50 in test [2] was 6.00 to 6.60.

Consider `Cc1ccc(NS(=O)(=O)c2cnn([C@@H](CO)C(F)F)c2)c2[nH]cc(C#N)c12` [Compound 227, N-(3-cyano-4-methyl-1H-indol-7-yl)-1-[(1S)-2,2-difluoro-1-(hydroxymethyl)ethyl]pyrazole-4-sulfonamide], for which the pIC50 in test [1] is greater than 6.60. Besides, the pEC50 in test [2] was 6.00 to 6.60.

As for `N#Cc1c[nH]c2c(NS(=O)(=O)c3cnn([C@@H](CO)C(F)F)c3)ccc(F)c12` [Compound 228, N-(3-cyano-4-fluoro-1H-indol-7-yl)-1-[(1S)-2,2-difluoro-1-(hydroxymethyl)ethyl]pyrazole-4-sulfonamide], the pIC50 in test [1] was greater than 6.60. In addition, the pEC50 in test [2] is less than 6.00.

Take `Cc1ccc(NS(=O)(=O)c2cnn(C(C)(C)CCO)c2)c2[nH]cc(C#N)c12` [Compound 229, N-(3-cyano-4-methyl-1H-indol-7-yl)-1-(4-hydroxy-2-methylbutan-2-yl)-1H-pyrazole-4-sulfonamide]: the pIC50 in test [1] was greater than 6.60. The pEC50 in test [2] was greater than 6.60.

Turning to `CC(C)(CCO)n1cc(S(=O)(=O)Nc2ccc(Cl)c3c(C#N)c[nH]c23)cn1` [Compound 230, N-(4-chloro-3-cyano-1H-indol-7-yl)-1-(3-hydroxy-1,1-dimethyl-propyl)pyrazole-4-sulfonamide], the pIC50 in test [1] was greater than 6.60. Besides, the pEC50 in test [2] is greater than 6.60.

`Cc1ccc(NS(=O)(=O)c2cnn(C(C)(C)CC(C)(C)O)c2)c2[nH]cc(C#N)c12` [Compound 231, N-(3-cyano-4-methyl-1H-indol-7-yl)-1-(3-hydroxy-1,1,3-trimethyl-butyl)pyrazole-4-sulfonamide]: the pIC50 in test [1] was greater than 6.60. Besides, in test [2], the pEC50 was greater than 6.60.

For `C[C@@H](O)[C@H](C)n1cc(S(=O)(=O)Nc2ccc(Cl)c3c(C#N)c[nH]c23)cn1` [Compound 232, N-(4-chloro-3-cyano-1H-indol-7-yl)-1-[(1S,2R)-2-hydroxy-1-methyl-propyl]pyrazole-4-sulfonamide], the pIC50 in test [1] is greater than 6.60. The pEC50 in test [2] was 6.00 to 6.60.

By pIC50 is commonly meant the negative decadic logarithm of the IC50, by convention in mol/L. By pEC50 is commonly meant −log10 of the EC50, conventionally taken in molar units.

The record behind these values is patent US20250368627A1, “PYRAZOLESULFONAMIDES AS ANTITUMOR AGENTS” (Peloton Therapeutics, Inc., a fully owned subsidiary of …, priority 2019, published 2025).
